Source: EP0291007A1, “Rhodanine derivative, process for preparing the same and pharmaceutical composition containing the same” (KAKEN PHARMACEUTICAL CO., LTD., priority 1987, dated 1988)

Tested on: accumulation of sorbitol in nervous tissues
Assay: Inhibiting activity of the accumulation of sorbitol in nervous tissues of streptozotocin-diabetic rats
Format: in vivo, SD male rats
Details: comparison compounds with linear alkyl group at 5-position; dose not stated

CCCCC1SC(=S)N(CC(=O)O)C1=O (centres unmarked) [3-carboxymethyl-5-n-butylrhodanine]
inhibition of the accumulation of sorbitol: hardly inhibited the accumulation of sorbitol

CCCC1SC(=S)N(CC(=O)O)C1=O (centres unmarked) [3-carboxymethyl-5-n-propylrhodanine]
inhibition of the accumulation of sorbitol: hardly inhibited the accumulation of sorbitol
